Laboratory results taken from PMC11995724, “Antibiotic target discovery by integrated phenotypic and activity-based profiling of electrophilic fragments” (Cell chemical biology, 2025).

Experiment: in vitro
Conditions: human, hek293t cells
For CC(Cl)C(=O)N1CCN(C(c2ccccc2)C(F)(F)F)CC1 (stereo not shown) [6-P16, 2-chloro-1-[4-(2,2,2-trifluoro-1-phenylethyl)piperazin-1-yl]propan-1-one], the viability at 48 h, 25 µM was 114%.
Molecule N#CC(=Cc1cccc2ccccc12)C(=O)NCc1ccco1 [8-N15, 2-cyano-N-[(furan-2-yl)methyl]-3-(naphthalen-1-yl)prop-2-enamide] has a viability at 48 h, 25 µM of 91%.
Molecule O=C(CCl)NCC1CCCCC1 [5-J06, 2-chloro-N-(cyclohexylmethyl)acetamide] has a viability at 48 h, 25 µM of 52.1%.
CC(Cl)C(=O)N(Cc1ccc(Cl)cc1)Cc1cnn(C)c1 (stereo not shown) [5-P17, 2-chloro-N-[(4-chlorophenyl)methyl]-N-[(1-methyl-1H-pyrazol-4-yl)methyl]propanamide] gave a viability at 48 h, 25 µM of 116%.
C=CC(=O)Nc1cc(C(C)C)ccc1C(C)C [1-I21, N-[2,5-bis(propan-2-yl)phenyl]prop-2-enamide] gave a viability at 48 h, 25 µM of 101%.
O=C(CCl)N1CC(Cc2ccc(F)cc2F)C1 [5-G20, 2-chloro-1-{3-[(2,4-difluorophenyl)methyl]azetidin-1-yl}ethan-1-one] gave a viability at 48 h, 25 µM of 0.867%.
With C=CC(=O)N1CCC(C(=O)Nc2nc3cc(F)ccc3n2CC)CC1 [3-I13, N-(1-ethyl-5-fluoro-1H-1,3-benzodiazol-2-yl)-1-(prop-2-enoyl)piperidine-4-carboxamide] the viability at 48 h, 25 µM was 62.5%.
In the case of CC1CN(c2ccc(NC(=O)C(C#N)=Cc3ccco3)cc2)CC(C)O1 (stereo not shown) [9-J09, 2-cyano-N-[4-(2,6-dimethylmorpholin-4-yl)phenyl]-3-(furan-2-yl)prop-2-enamide], the viability at 48 h, 25 µM is reported as 109%.
C=CC(=O)Nc1ccccc1CNS(C)(=O)=O [3-F16, N-[2-(methanesulfonamidomethyl)phenyl]prop-2-enamide] gave a viability at 48 h, 25 µM of 104%.
With O=C(CCl)N1CCC(CCc2ccccc2)CC1 [6-G12, 2-chloro-1-[4-(2-phenylethyl)piperidin-1-yl]ethan-1-one] the viability at 48 h, 25 µM was 1.05%.
With C=CC(=O)Nc1ccc2c(=O)onc(C)c2c1 [1-N12, N-(4-methyl-1-oxo-1H-2,3-benzoxazin-6-yl)prop-2-enamide] the viability at 48 h, 25 µM was 1.1%.
Molecule C=CC(=O)N1CCC(C(=O)NC(C)(c2noc(C)n2)C2CC2)CC1 (stereo not shown) [2-B10, N-[1-cyclopropyl-1-(5-methyl-1,2,4-oxadiazol-3-yl)ethyl]-1-(prop-2-enoyl)piperidine-4-carboxamide] has a viability at 48 h, 25 µM of 79.8%.
Work on CC(Cl)C(=O)Nc1ccccc1Cl (stereo not shown) [4-D11, 2-chloro-N-(2-chlorophenyl)propanamide] yielded a viability at 48 h, 25 µM of 97.8%.
COc1ccc(C2=NN(C(=O)CCl)C(c3cccc(C)c3)C2)cc1 (stereo not shown) [4-G20, 2-chloro-1-[3-(4-methoxyphenyl)-5-(3-methylphenyl)-4,5-dihydro-1H-pyrazol-1-yl]ethan-1-one] gave a viability at 48 h, 25 µM of -0.0034%.
O=C(CCl)Nc1ccc(OCc2ccccc2)cc1 [6-K07, N-[4-(benzyloxy)phenyl]-2-chloroacetamide] showed a viability at 48 h, 25 µM of 0.0552%.
For O=C(c1cc(=O)[nH]c2ccc([N+](=O)[O-])cc12)N1CCSSCC1 [10-B11, 4-(1,2,5-dithiazepane-5-carbonyl)-6-nitro-1,2-dihydroquinolin-2-one], the viability at 48 h, 25 µM was 111%.
O=C(CCl)NCc1[nH]nc2c1CCCC2 [6-E04, 2-chloro-N-[(4,5,6,7-tetrahydro-2H-indazol-3-yl)methyl]acetamide] gave a viability at 48 h, 25 µM of 59.9%.
CC(C)N1C(=O)C[C@H](NC(=O)CCl)[C@H]1c1ccc(Cl)c(F)c1 (racemic) [5-I11, rac-2-chloro-N-[(2R,3S)-2-(4-chloro-3-fluorophenyl)-5-oxo-1-(propan-2-yl)pyrrolidin-3-yl]acetamide] gave a viability at 48 h, 25 µM of 0.807%.
For O=C(CCl)c1c[nH]c2ccc(F)cc12 [10-O11, 2-chloro-1-(5-fluoro-1H-indol-3-yl)ethan-1-one], the viability at 48 h, 25 µM was 0.58%.
With C=CC(=O)N1CCC(C(=O)N2CCC(NC(=O)NC)CC2)CC1 [2-H18, 3-methyl-1-{1-[1-(prop-2-enoyl)piperidine-4-carbonyl]piperidin-4-yl}urea] the viability at 48 h, 25 µM was 83%.
With C=CC(=O)Nc1ccc(CN2CCC(C)CC2)cc1 [1-D21, N-{4-[(4-methylpiperidin-1-yl)methyl]phenyl}prop-2-enamide] the viability at 48 h, 25 µM was 157%.
CC(Cl)C(=O)N1CCC(n2nnc3c2CCCC3)CC1 (stereo not shown) [7-H17, 2-chloro-1-[4-(4,5,6,7-tetrahydro-1H-1,2,3-benzotriazol-1-yl)piperidin-1-yl]propan-1-one] showed a viability at 48 h, 25 µM of 90%.
Molecule C=CC(=O)NC1CS(=O)(=O)C1 [3-P18, N-(1,1-dioxo-1lambda6-thietan-3-yl)prop-2-enamide] has a viability at 48 h, 25 µM of 105%.
Molecule C=CC(=O)N1CCCCC1CNC(C)=O (stereo not shown) [2-M07, N-{[1-(prop-2-enoyl)piperidin-2-yl]methyl}acetamide] has a viability at 48 h, 25 µM of 186%.
Cc1ccc(C=C(C#N)C(=O)Nc2nccs2)o1 [9-P10, 2-cyano-3-(5-methylfuran-2-yl)-N-(1,3-thiazol-2-yl)prop-2-enamide] gave a viability at 48 h, 25 µM of 126%.
For O=C(CCl)Nc1ccccc1C(=O)Nc1ccc(Cl)cc1 [4-G10, 2-(2-chloroacetamido)-N-(4-chlorophenyl)benzamide], the viability at 48 h, 25 µM was 0.0501%.
Molecule Cc1cccc(NC(=O)C(C#N)=Cc2cc(C)n(C3CC3)c2C)c1 [9-D17, 2-cyano-3-(1-cyclopropyl-2,5-dimethyl-1H-pyrrol-3-yl)-N-(3-methylphenyl)prop-2-enamide] has a viability at 48 h, 25 µM of 94.3%.
In the case of C=CC(=O)NCc1cn(C2CCC2)nn1 [3-D09, N-[(1-cyclobutyl-1H-1,2,3-triazol-4-yl)methyl]prop-2-enamide], the viability at 48 h, 25 µM is reported as 48.7%.
For C=CC(=O)NCCC(=O)N1CCSC(C)CC1 (stereo not shown) [2-K08, N-[3-(7-methyl-1,4-thiazepan-4-yl)-3-oxopropyl]prop-2-enamide], the viability at 48 h, 25 µM was 91.8%.
C=CC(=O)NCC(=C)c1ccccc1 [2-B09, N-(2-phenylprop-2-en-1-yl)prop-2-enamide] showed a viability at 48 h, 25 µM of 57%.
CC(C)c1cccc(C(C)C)c1NC(=O)CCl [5-G13, N-[2,6-bis(propan-2-yl)phenyl]-2-chloroacetamide] gave a viability at 48 h, 25 µM of 37.8%.
Work on CC(C)Oc1ccccc1C=C(C#N)C(=O)Nc1ccccc1 [8-M17, 2-cyano-N-phenyl-3-[2-(propan-2-yloxy)phenyl]prop-2-enamide] yielded a viability at 48 h, 25 µM of 78.4%.
For COc1ccc(N(C)C(=O)C(C)Cl)cc1Cl (stereo not shown) [7-C14, 2-chloro-N-(3-chloro-4-methoxyphenyl)-N-methylpropanamide], the viability at 48 h, 25 µM was 80.4%.
For C=CC(=O)NCCc1ccc(S(N)(=O)=O)cc1 [2-B13, N-[2-(4-sulfamoylphenyl)ethyl]prop-2-enamide], the viability at 48 h, 25 µM was 77.8%.
Molecule O=C(CCl)N(CCCO)C1CCCc2ccccc21 (stereo not shown) [7-J14, 2-chloro-N-(3-hydroxypropyl)-N-(1,2,3,4-tetrahydronaphthalen-1-yl)acetamide] has a viability at 48 h, 25 µM of 0.693%.
Molecule CC(=O)NCc1ccc(C2CCCN2C(=O)CCl)o1 (stereo not shown) [5-P13, N-({5-[1-(2-chloroacetyl)pyrrolidin-2-yl]furan-2-yl}methyl)acetamide] has a viability at 48 h, 25 µM of 0.652%.
CC(Cl)C(=O)N1CCN(C(C)C)c2ccccc2C1 (stereo not shown) [7-O07, 2-chloro-1-[1-(propan-2-yl)-2,3,4,5-tetrahydro-1H-1,4-benzodiazepin-4-yl]propan-1-one] gave a viability at 48 h, 25 µM of 81.6%.
Molecule COc1ccc(CCN2C(=O)C=CC2=O)cc1OC [10-H07, 1-[2-(3,4-dimethoxyphenyl)ethyl]-2,5-dihydro-1H-pyrrole-2,5-dione] has a viability at 48 h, 25 µM of 101%.
Work on Cc1cccc(C)c1NC(=O)C(C#N)=Cc1ccc(C(=O)O)cc1 [9-G17, 4-{2-cyano-2-[(2,6-dimethylphenyl)carbamoyl]eth-1-en-1-yl}benzoic acid] yielded a viability at 48 h, 25 µM of 111%.
In the case of C=CC(=O)NCc1nncn1-c1ccccc1 [1-G07, N-[(4-phenyl-4H-1,2,4-triazol-3-yl)methyl]prop-2-enamide], the viability at 48 h, 25 µM is reported as 77.3%.
In the case of C=CC(=O)NCC(=O)c1scc(C)c1Cl [1-D16, N-[2-(3-chloro-4-methylthiophen-2-yl)-2-oxoethyl]prop-2-enamide], the viability at 48 h, 25 µM is reported as 65.2%.
With O=C(CCl)N(CC=Cc1ccccc1)c1ccc2c(c1)OCCO2 [4-G19, 2-chloro-N-(2,3-dihydro-1,4-benzodioxin-6-yl)-N-(3-phenylprop-2-en-1-yl)acetamide] the viability at 48 h, 25 µM was 0.292%.
With CN(C)c1ccc(C=C(C#N)C(=O)Nc2ccc3c(c2)OCCO3)cc1 [9-B21, 2-cyano-N-(2,3-dihydro-1,4-benzodioxin-6-yl)-3-[4-(dimethylamino)phenyl]prop-2-enamide] the viability at 48 h, 25 µM was 110%.
With C=CC(=O)N(C)CC(=O)N1CCCCC1c1nc(C)c(C)s1 (stereo not shown) [2-E20, N-{2-[2-(4,5-dimethyl-1,3-thiazol-2-yl)piperidin-1-yl]-2-oxoethyl}-N-methylprop-2-enamide] the viability at 48 h, 25 µM was 116%.
In the case of C=CC(=O)NCC1(OC)CCC(C)CC1 (stereo not shown) [1-P08, N-[(1-methoxy-4-methylcyclohexyl)methyl]prop-2-enamide], the viability at 48 h, 25 µM is reported as 80.5%.
In the case of CC(C)NC(=O)C(C#N)=Cc1ccc(Cl)c(Cl)c1 [9-M07, 2-cyano-3-(3,4-dichlorophenyl)-N-(propan-2-yl)prop-2-enamide], the viability at 48 h, 25 µM is reported as 30.2%.
Work on O=C(NC1CC1)C1(C(=O)N2CCSSCC2)CCC1 [10-B21, N-cyclopropyl-1-(1,2,5-dithiazepane-5-carbonyl)cyclobutane-1-carboxamide] yielded a viability at 48 h, 25 µM of 95.1%.
With C=CC(=O)N1CCC=C(c2cn(C(C)C)nn2)CC1 [3-D19, 1-{4-[1-(propan-2-yl)-1H-1,2,3-triazol-4-yl]-2,3,6,7-tetrahydro-1H-azepin-1-yl}prop-2-en-1-one] the viability at 48 h, 25 µM was 78.1%.
CC(NC(=O)CCl)C(=O)Nc1ccc(Cl)cc1 (stereo not shown) [5-G11, 2-(2-chloroacetamido)-N-(4-chlorophenyl)propanamide] showed a viability at 48 h, 25 µM of 1.06%.
Molecule N#CC(=Cc1ccc(F)cc1)C(=O)Nc1ccc(C(=O)O)cc1 [8-L07, 4-[2-cyano-3-(4-fluorophenyl)prop-2-enamido]benzoic acid] has a viability at 48 h, 25 µM of 119%.
Molecule CN1C(=O)Cc2cc(C(=O)CCl)ccc21 [10-G07, 5-(2-chloroacetyl)-1-methyl-2,3-dihydro-1H-indol-2-one] has a viability at 48 h, 25 µM of 46.1%.
Molecule C=CC(=O)N1CCC(C(=O)N2CCCC(C)(CC)C2)CC1 (stereo not shown) [2-J10, 1-[4-(3-ethyl-3-methylpiperidine-1-carbonyl)piperidin-1-yl]prop-2-en-1-one] has a viability at 48 h, 25 µM of 67.4%.
